In patent publication US20240309043A1, “THERAPEUTICALLY ACTIVE STEROIDAL DERIVATIVES” (Organon R&D Finland Ltd., priority 2017, published 2024):

Columns and labels:
[1] = molecular target: T1, recombinant human 17β-HSD1 (Homo sapiens, UniProt P14061); test: Inhibition of recombinant human 17β-HSD1; format: biochemical; conditions: inhibitor 100 nM; 30 nM estrone, 1 mM NADPH, 30 min RT
T1 construct: made in house; host or cells: Sd9 (Sf9) insect cells, baculovirus (Bac to Bac Expression System)
T1 sequence (P14061 1-328): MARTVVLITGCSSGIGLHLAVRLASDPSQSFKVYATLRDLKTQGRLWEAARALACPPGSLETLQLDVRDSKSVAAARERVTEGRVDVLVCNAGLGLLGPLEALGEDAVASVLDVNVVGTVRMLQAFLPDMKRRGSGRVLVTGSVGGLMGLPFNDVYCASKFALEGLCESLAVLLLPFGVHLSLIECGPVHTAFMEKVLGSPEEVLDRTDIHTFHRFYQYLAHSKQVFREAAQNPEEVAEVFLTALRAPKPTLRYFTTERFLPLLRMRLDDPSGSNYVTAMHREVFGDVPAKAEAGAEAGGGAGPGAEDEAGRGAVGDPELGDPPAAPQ
In short: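 Microsomes from Sf9 cells expressing human 17β-HSD1 (1 μg/ml) were incubated for 30 min at RT in 20 mM KH2PO4 pH 7.4 with 30 nM ³H-estrone, 1 mM NADPH and inhibitor at 1 μM or 0.1 μM (1% DMSO). Estrone-to-estradiol conversion was measured by radio-HPLC after TCA stop, and % inhibition was taken as 100 − % conversion.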

[2] = molecular target: T2, recombinant human 17β-HSD2 (Homo sapiens, UniProt P37059); test: Inhibition of recombinant human 17β-HSD2; format: biochemical; conditions: inhibitor 1 μM; 50 nM estradiol, 1 mM NADH, 30 min RT
T2 construct: made in house; host or cells: Sd9 (Sf9) insect cells, baculovirus (Bac to Bac Expression System)
T2 sequence (P37059 1-387): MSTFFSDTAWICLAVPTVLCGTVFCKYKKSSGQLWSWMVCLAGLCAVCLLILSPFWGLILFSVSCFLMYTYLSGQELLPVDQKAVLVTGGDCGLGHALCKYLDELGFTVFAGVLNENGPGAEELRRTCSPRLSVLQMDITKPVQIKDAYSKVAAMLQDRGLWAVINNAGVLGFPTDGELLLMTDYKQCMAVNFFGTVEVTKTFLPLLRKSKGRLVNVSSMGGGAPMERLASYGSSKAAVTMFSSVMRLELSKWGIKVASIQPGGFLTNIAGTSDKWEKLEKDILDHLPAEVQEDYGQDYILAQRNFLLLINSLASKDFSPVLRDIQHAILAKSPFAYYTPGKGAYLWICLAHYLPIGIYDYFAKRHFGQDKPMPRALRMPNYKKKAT
In short: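 Sf9 baculovirus-expressed enzyme membrane extract (4 μg/ml) incubated 30 min at RT in 20 mM KH2PO4 pH 8.5 with 50 nM estradiol (³H-tracer) and 1 mM NADH, inhibitor at 1 μM or 0.1 μM, 1% DMSO. TCA-stopped; estradiol-to-estrone conversion by radio-HPLC, % inhibition = 100 − % conversion.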

[3] = system: HSD1 enzyme that is expressed in rabbit placenta tissue; test: Inhibition of E1 to E2 conversion in rabbit placenta tissue homogenate; format: biochemical; conditions: inhibitor 100 nM, 30 nM estrone, 30 min
human hepatocytes = test: Metabolic stability assay, human hepatocyte incubations; format: in vitro ADME; conditions: 37° C., 0-60 min, half life
Procedure: The in vitro metabolic stability of the compounds of the invention was determined for exemplified compounds using human hepatocyte incubations. Study compounds were incubated 0, 10, 20, 40 and 60 min at 37° C. Samples were collected at all time points and compounds were detected by LC-MS/MS analysis. The percent compound remaining is calculated by comparing the peak area of the parent compound at each time point to time zero. In vitro metabolic stability was determined as half life (T½), which was determined by regression analysis of the percent parent disappearance vs. time curve. The results are summarized in Table2.

| SMILES | inhibition at 0.1 µM [1] | inhibition at 1 µM [2] | Rabbit placenta inhibition % @100 nM [3] | Human hepatocytes MetStab T1_2 min (human hepatocytes) |
| --- | --- | --- | --- | --- |
| C[C@]12CCC3c4ccccc4CCC3C1[C@H](CCC(=O)Nc1ccc(F)cn1)C/C2=N\O (stereo partly drawn) [Compound 98, N-(5-fluoropyridin-2-yl)-3-((13S,15R,E)-17-(hydroxyimino)-13-methyl-7,8,9,11,12,13,14,15,16,17-decahydro-6H-cyclopenta[a]phenanthren-15-yl)propanamide] | 60% | 0% | 4% | 28 min |
| COc1ccnc(NC(=O)CC[C@@H]2C/C(=N\O)[C@@]3(C)CCC4c5ccccc5CCC4C23)c1 (stereo partly drawn) [Compound 106, 3-((13S,15R,E)-17-(hydroxyimino)-13-methyl-7,8,9,11,12,13,14,15,16,17-decahydro-6H-cyclopenta[a]phenanthren-15-yl)-N-(4-methoxypyridin-2-yl)propanamide] | 76% | 2% | 5% | 31 min |
| Cc1cnc(NC(=O)CC[C@@H]2C/C(=N\O)[C@@]3(C)CCC4c5ccccc5CCC4C23)o1 (stereo partly drawn) [Compound 108, 3-((13S,15R,E)-17-(hydroxyimino)-13-methyl-7,8,9,11,12,13,14,15,16,17-decahydro-6H-cyclopenta[a]phenanthren-15-yl)-N-(5-methyloxazol-2-yl)propanamide] | 54% | 5% | 20% | 21 min |
| Cc1cc(NC(=O)CC[C@@H]2C/C(=N\O)[C@@]3(C)CCC4c5ccccc5CCC4C23)no1 (stereo partly drawn) [Compound 110] | 33% | -4% | 35% | 26 min |
| CC(C)c1ccc(NC(=O)CC[C@@H]2C/C(=N\O)[C@@]3(C)CCC4c5cccc(F)c5CCC4C23)nc1 (stereo partly drawn) [Compound 112, 3-((13S,15R,E)-4-fluoro-17-(hydroxyimino)-13-methyl-7,8,9,11,12,13,14,15,16,17-decahydro-6H-cyclopenta[a]phenanthren-15-yl)-N-(5-isopropylpyridin-2-yl)propanamide] | 96% | 7% | 67% | 29 min |
| C[C@]12CCC3c4cccc(F)c4CCC3C1[C@H](CCC(=O)Nc1ccc(N3CCOCC3)cn1)C/C2=N\O (stereo partly drawn) [Compound 114, 3-((13S,15R,E)-4-fluoro-17-(hydroxyimino)-13-methyl-7,8,9,11,12,13,14,15,16,17-decahydro-6H-cyclopenta[a]phenanthren-15-yl)-N-(5-morpholinopyridin-2-yl)propanamide] | 100% | 7% | 75% | 40 min |
